The text below walks through data of US6660721B2, “Anti-HCV nucleoside derivatives” (Hoffmann-la Roche Inc., priority 2001, dated 2003).

Like-named read-outs stand apart in the source and are kept apart here.

The subject of the assay is HCV replicon RNA in human hepatoma Huh7 cells (cell line 2209-23). The assay is described as follows: HCV Replicon assay (Renilla luciferase reporter, 2209-23 cells). The format is cell-based, Hepatitis C virus. The conditions noted are these: for IC50: Hepatitis C virus, Huh-7, 72 h, read-out: IC50 (HCV Replicon assay). (A replicon is a self-replicating genome or part of one, used to study replication in cells.)

On to `Nc1ccn([C@@H]2O[C@H](CO)[C@@H](O)[C@H]2F)c(=O)n1` [2′-Deoxy-2′-fluorocytidine], for which the IC50 (Renilla luciferase HCV replicon cells 2209-23, three days incubation) came to 0.74 µM. With `Nc1nc2c(ncn2[C@@H]2O[C@H](CO)[C@@H](O)[C@H]2F)c(=O)[nH]1` [2′-Deoxy-2′-fluoroguanosine], the “% reduction of replicon level at fixed concentration” value (@ 20 μM, Renilla luciferase HCV replicon cells 2209-23) came out at 62% @ 20. Take `Nc1nc(N)c2ncn([C@@H]3O[C@H](CO)[C@@H](O)[C@H]3F)c2n1` [9-(2-Deoxy-2-fluoro-β-D-ribofuranosyl)-2,6-diaminopurine]: the IC50 turned out to be 10 µM.

The IC50 is the concentration that gives 50% inhibition.
